Source: ChEMBL document CHEMBL1201862, “PubChem BioAssay data set” (2004)
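Interpolation was linear, between the two tested concentrations surrounding the appropriate level; five concentrations were tested over 48 hours in 96-well plates. GI50 = concentration required for 50% inhibition of growth.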 Active and inactive are the calls of the source. No stated cut-off is given here; in the data, active = GI50 up to about 1.1 µM and inactive = higher.

How the values were obtained:
Assay in all cases: inhibition of tumour cell growth, NCI panel, 48 h
786-0 = system: 786-0
A498 = system: A498
A549 = system: A549
ACHN = system: ACHN
BT-549 = system: BT-549
CAKI-1 = system: CAKI-1
CCRF-CEM = system: CCRF-CEM
COLO 205 = system: COLO 205
DU-145 = system: DU-145
EKVX = system: EKVX
HCT-116 = system: HCT-116
HCT-15 = system: HCT-15
HL-60 = system: HL-60
HOP-62 = system: HOP-62
HOP-92 = system: HOP-92
HT-29 = system: HT-29
Hs-578T = system: Hs-578T
IGROV-1 = system: IGROV-1
K562 = system: K562
KM12 = system: KM12
LOX IMVI = system: LOX IMVI
M14 = system: M14
MDA-MB-231 = system: MDA-MB-231
MDA-MB-435 = system: MDA-MB-435
MDA-N = system: MDA-N
MOLT-4 = system: MOLT-4
Malme-3M = system: Malme-3M
NCI-H226 = system: NCI-H226
NCI-H23 = system: NCI-H23
NCI-H460 = system: NCI-H460
NCI-H522 = system: NCI-H522
NCI/ADR-RES = system: NCI/ADR-RES
OVCAR-3 = system: OVCAR-3
OVCAR-5 = system: OVCAR-5
OVCAR-8 = system: OVCAR-8
PC-3 = system: PC-3
RPMI-8226 = system: RPMI-8226
RXF 393 = system: RXF 393
SF-268 = system: SF-268
SF-295 = system: SF-295
SF-539 = system: SF-539
SK-MEL-28 = system: SK-MEL-28
SK-MEL-2 = system: SK-MEL-2
SK-MEL-5 = system: SK-MEL-5
SK-OV-3 = system: SK-OV-3
SN12C = system: SN12C
SNB-19 = system: SNB-19
SNB-75 = system: SNB-75
SW-620 = system: SW-620
T47D = system: T47D
TK-10 = system: TK-10
U-251 = system: U-251
UACC-257 = system: UACC-257
UACC-62 = system: UACC-62
UO-31 = system: UO-31

Q: For c1ccc(CC2(c3cc4ccccc4[nH]3)OCCO2)nc1, which GI50 (786-0) is on record?
A: Its GI50 is > 100 µM (inactive).

Q: And the GI50 (A498)?
A: The GI50 was > 100 µM (inactive).

Q: And the GI50 (A549)?
A: Its GI50 is > 100 µM (inactive).

Q: What about the GI50 (ACHN) of the same molecule?
A: The GI50 was > 100 µM (inactive).

Q: What about the GI50 (BT-549) of the same molecule?
A: The GI50 was > 100 µM (inactive).

Q: What about the GI50 (CAKI-1) of the same molecule?
A: The GI50 was > 100 µM (inactive).

Q: What about the GI50 (CCRF-CEM) of the same molecule?
A: Its GI50 is 83 µM (inactive).

Q: What about the GI50 (COLO 205) of the same molecule?
A: Its GI50 is > 100 µM (inactive).

Q: And the GI50 (DU-145)?
A: Its GI50 is > 100 µM (inactive).

Q: And the GI50 (EKVX)?
A: Its GI50 is 92.3 µM (inactive).

Q: And the GI50 (HCT-116)?
A: The GI50 was > 100 µM (inactive).

Q: And the GI50 (HCT-15)?
A: Its GI50 is over 100 µM.

Q: And the GI50 (HL-60)?
A: Its GI50 is 72.3 µM (inactive).

Q: What about the GI50 (HOP-62) of the same molecule?
A: The GI50 was > 100 µM (inactive).

Q: And the GI50 (HOP-92)?
A: Its GI50 is > 100 µM (inactive).

Q: What about the GI50 (HT-29) of the same molecule?
A: The GI50 was > 100 µM (inactive).

Q: And the GI50 (Hs-578T)?
A: The GI50 was 51.5 µM (inactive).

Q: And the GI50 (IGROV-1)?
A: Its GI50 is 1.95 µM (inactive).

Q: What about the GI50 (K562) of the same molecule?
A: Its GI50 is 50.2 µM (inactive).

Q: And the GI50 (KM12)?
A: Its GI50 is > 100 µM (inactive).

Q: What about the GI50 (LOX IMVI) of the same molecule?
A: Its GI50 is 34.7 µM (inactive).

Q: And the GI50 (M14)?
A: Its GI50 is > 100 µM (inactive).

Q: What about the GI50 (MDA-MB-231) of the same molecule?
A: Its GI50 is > 100 µM (inactive).

Q: And the GI50 (MDA-MB-435)?
A: The GI50 was > 100 µM (inactive).

Q: What about the GI50 (MDA-N) of the same molecule?
A: The GI50 was > 100 µM (inactive).

Q: What about the GI50 (MOLT-4) of the same molecule?
A: Its GI50 is 61.1 µM (inactive).

Q: What about the GI50 (Malme-3M) of the same molecule?
A: The GI50 was 47.6 µM (inactive).

Q: And the GI50 (NCI-H226)?
A: The GI50 was 18 µM (inactive).

Q: What about the GI50 (NCI-H23) of the same molecule?
A: The GI50 was > 100 µM (inactive).

Q: And the GI50 (NCI-H460)?
A: The GI50 was > 100 µM (inactive).

Q: What about the GI50 (NCI-H522) of the same molecule?
A: The GI50 was 70.8 µM (inactive).

Q: What about the GI50 (NCI/ADR-RES) of the same molecule?
A: Its GI50 is > 100 µM (inactive).

Q: What about the GI50 (OVCAR-3) of the same molecule?
A: Its GI50 is 90.6 µM (inactive).

Q: What about the GI50 (OVCAR-5) of the same molecule?
A: Its GI50 is > 100 µM (inactive).

Q: And the GI50 (OVCAR-8)?
A: Its GI50 is > 100 µM (inactive).

Q: And the GI50 (PC-3)?
A: The GI50 was > 100 µM (inactive).

Q: And the GI50 (RPMI-8226)?
A: The GI50 was > 100 µM (inactive).

Q: And the GI50 (RXF 393)?
A: Its GI50 is 88.1 µM (inactive).

Q: What about the GI50 (SF-268) of the same molecule?
A: The GI50 was > 100 µM (inactive).

Q: And the GI50 (SF-295)?
A: The GI50 was 58.1 µM (inactive).

Q: And the GI50 (SF-539)?
A: Its GI50 is > 100 µM (inactive).

Q: And the GI50 (SK-MEL-28)?
A: Its GI50 is > 100 µM (inactive).

Q: What about the GI50 (SK-MEL-2) of the same molecule?
A: Its GI50 is > 100 µM (inactive).

Q: What about the GI50 (SK-MEL-5) of the same molecule?
A: Its GI50 is > 100 µM (inactive).

Q: And the GI50 (SK-OV-3)?
A: Its GI50 is > 100 µM (inactive).

Q: And the GI50 (SN12C)?
A: The GI50 was > 100 µM (inactive).

Q: What about the GI50 (SNB-19) of the same molecule?
A: Its GI50 is > 100 µM (inactive).

Q: What about the GI50 (SNB-75) of the same molecule?
A: The GI50 was 12.1 µM (inactive).

Q: What about the GI50 (SW-620) of the same molecule?
A: The GI50 was > 100 µM (inactive).

Q: What about the GI50 (T47D) of the same molecule?
A: Its GI50 is > 100 µM (inactive).

Q: And the GI50 (TK-10)?
A: The GI50 was > 100 µM (inactive).

Q: And the GI50 (U-251)?
A: Its GI50 is > 100 µM (inactive).

Q: What about the GI50 (UACC-257) of the same molecule?
A: Its GI50 is > 100 µM (inactive).

Q: And the GI50 (UACC-62)?
A: The GI50 was > 100 µM (inactive).

Q: What about the GI50 (UO-31) of the same molecule?
A: Its GI50 is > 100 µM (inactive).
